From the supplement of paper PMC8960247
Structures can show the parent of a compound that is named as a salt. ± gives the standard error.

Legend:
621-102 (TSC2-deficient) = assay: relative viability vs DMSO; higher = less cytotoxic; conditions: serum: 10% FBS, 72 h
621-103 (TSC2-rescued) = assay: as above; conditions: serum: 10% FBS, 72 h
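Further: immortalized renal angiomyolipoma cells stably carrying empty vector or TSC2, dosed in 384-well plates in DMEM, viability normalized to vehicle-treated wells within each plate.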

Row | SMILES | relative viability (621-102 (TSC2-deficient); 0.0001 µM) [%] | relative viability (621-102 (TSC2-deficient); 0.001 µM) [%] | relative viability (621-102 (TSC2-deficient); 0.01 µM) [%] | relative viability (621-102 (TSC2-deficient); 0.1 µM) [%] | relative viability (621-102 (TSC2-deficient); 1 µM) [%] | relative viability (621-102 (TSC2-deficient); 10 µM) [%] | relative viability (621-103 (TSC2-rescued); 0.0001 µM) [%] | relative viability (621-103 (TSC2-rescued); 0.001 µM) [%] | relative viability (621-103 (TSC2-rescued); 0.01 µM) [%] | relative viability (621-103 (TSC2-rescued); 0.1 µM) [%] | relative viability (621-103 (TSC2-rescued); 1 µM) [%] | relative viability (621-103 (TSC2-rescued); 10 µM) [%]
1 | CC(C)(C)NC(=O)[C@H]1CC[C@H]2[C@@H]3CC[C@H]4NC(=O)C=C[C@]4(C)[C@H]3CC[C@]12C [Finasteride] | 112 ± 1.9 | 114 ± 4 | 106 ± 2 | 99.13 ± 0.73 | 92.7 ± 2 | 92.5 ± 2.9 | 102.7 ± 0.88 | 101 ± 1.6 | 102.1 ± 0.43 | 101.2 ± 0.15 | 101.2 ± 0.59 | 99.6 ± 0.87
2 | CN1CC[C@H](c2c(O)cc(O)c3c(=O)cc(-c4ccccc4Cl)oc23)[C@H](O)C1 [Flavopiridol (Alvocidib)] | 104 ± 1.3 | 104.1 ± 0.59 | 95.5 ± 5 | 45.4 ± 1.9 | 11.3 ± 0.76 | 11.7 ± 0.13 | 103 ± 4.3 | 100.4 ± 0.89 | 102.2 ± 0.86 | 55.26 ± 0.43 | 17.8 ± 0.22 | 21.81 ± 0.19
3 | CN1CC[C@H](c2c(O)cc(O)c3c(=O)cc(-c4ccccc4Cl)oc23)[C@H](O)C1 [Flavopiridol HCl] | 103 ± 1.6 | 98.59 ± 0.27 | 93.1 ± 5.7 | 49.2 ± 0.89 | 10.5 ± 0.34 | 10.1 ± 1.1 | 91.4 ± 6.3 | 88 ± 1.4 | 90.7 ± 3.4 | 55.2 ± 0.46 | 13 ± 0.61 | 11 ± 0.25
4 | CN1CCN(c2c(F)cc3c(=O)c(C(=O)O)cn(CCF)c3c2F)CC1 [Fleroxacin (Quinodis)] | 104 ± 1.2 | 111 ± 3.5 | 102 ± 2.7 | 91.53 ± 0.47 | 90.9 ± 1.1 | 91.6 ± 4.7 | 96.7 ± 2.6 | 92.52 ± 0.83 | 92.3 ± 1.4 | 98.4 ± 1.5 | 105 ± 5 | 109 ± 1.7
5 | Nc1nc(=O)[nH]cc1F [Flucytosine (Ancobon)] | 92.9 ± 2.9 | 99.4 ± 1.2 | 103.85 ± 0.042 | 102.2 ± 0.19 | 98.4 ± 4.1 | 92.5 ± 3.2 | 105.5 ± 0.24 | 101 ± 3.4 | 104.5 ± 0.84 | 106 ± 1.2 | 103 ± 1.4 | 98.9 ± 4.4
6 | Nc1nc(F)nc2c1ncn2[C@@H]1O[C@H](CO)[C@@H](O)[C@@H]1O [Fludarabine (Fludara)] | 101 ± 3.9 | 92 ± 1.4 | 106 ± 1.3 | 100.6 ± 0.41 | 94.7 ± 5.7 | 86.22 ± 0.37 | 108 ± 4.5 | 92.6 ± 8.1 | 102 ± 1.6 | 102.9 ± 1 | 102.8 ± 0.34 | 86.6 ± 8
7 | Nc1nc(F)nc2c1ncn2[C@@H]1O[C@H](COP(=O)(O)O)[C@@H](O)[C@@H]1O [Fludarabine Phosphate] | 98.1 ± 1.6 | 105 ± 1.1 | 101.7 ± 0.47 | 106 ± 1.9 | 96.4 ± 7.2 | 94 ± 1.7 | 104 ± 2.1 | 104 ± 2.7 | 103.3 ± 0.34 | 102.6 ± 0.82 | 100 ± 1.7 | 89.1 ± 6.1
8 | CNCCC(Oc1ccc(C(F)(F)F)cc1)c1ccccc1 (stereo unspecified) [Fluoxetine HCl] | 101.3 ± 0.38 | 100 ± 1.8 | 109 ± 2.5 | 107 ± 2.1 | 99.3 ± 1.1 | 86.9 ± 2.2 | 100 ± 4.3 | 109 ± 2 | 106 ± 1.8 | 99.6 ± 1.9 | 104 ± 1.3 | 70.9 ± 2
9 | CC(C)n1c(/C=C/C(O)CC(O)CC(=O)O)c(-c2ccc(F)cc2)c2ccccc21 (stereo unspecified) [Fluvastatin Sodium] | 102 ± 1.5 | 106 ± 3.3 | 105 ± 1.1 | 101 ± 3.1 | 100 ± 2.8 | 73.38 ± 0.72 | 102 ± 2.2 | 95.8 ± 2.6 | 99.5 ± 4.6 | 100 ± 2.1 | 71.8 ± 4.7 | 32.19 ± 0.096
10 | C[C@]12CCC(=O)C(O)=C1CC[C@@H]1[C@@H]2CC[C@]2(C)C(=O)CC[C@@H]12 [Formestane] | 105 ± 1.1 | 113 ± 3.5 | 120 ± 4.2 | 94.73 ± 0.3 | 98.9 ± 1.5 | 109 ± 0.99 | 105 ± 4 | 102.8 ± 0.63 | 105.2 ± 0.81 | 102 ± 1.2 | 101 ± 3.9 | 102.4 ± 0.89
11 | C[C@]12CC[C@@H]3c4ccc(O)cc4C[C@@H](CCCCCCCCC[S+]([O-])CCCC(F)(F)C(F)(F)F)[C@H]3[C@@H]1CC[C@@H]2O (stereo partly specified) [Fulvestrant] | 119.5 ± 0.33 | 117.7 ± 1 | 115 ± 2.2 | 114.7 ± 0.26 | 120 ± 3.1 | 113 ± 3.3 | 104 ± 1.3 | 101.5 ± 0.32 | 100 ± 1.9 | 102.2 ± 0.13 | 103 ± 1.7 | 104 ± 1.2
12 | CS(=O)(=O)c1ccc(C(=O)Nc2ccc(Cl)c(-c3ccccn3)c2)c(Cl)c1 [GDC-0449 (Vismodegib)] | 103 ± 2.5 | 111.7 ± 0.39 | 111.9 ± 0.39 | 111 ± 2.7 | 116.2 ± 0.59 | 104 ± 1.8 | 100.4 ± 1 | 100 ± 1.6 | 103 ± 1.6 | 102.1 ± 0.15 | 103.2 ± 0.18 | 102 ± 0.43
13 | OCCn1cc(-c2ccc3c(c2)CC/C3=N\O)c(-c2ccncc2)n1 [GDC-0879] | 101.5 ± 0.2 | 102 ± 1.7 | 107 ± 2.4 | 102 ± 2.6 | 108 ± 1.7 | 92.1 ± 2 | 101.6 ± 0.87 | 97.76 ± 0.82 | 98.9 ± 1.5 | 99.06 ± 0.76 | 96.15 ± 0.42 | 100.41 ± 0.061
14 | CS(=O)(=O)N1CCN(Cc2cc3nc(-c4cccc5[nH]ncc45)nc(N4CCOCC4)c3s2)CC1 [GDC-0941] | 106 ± 1.4 | 114 ± 2.3 | 114.7 ± 0.27 | 111 ± 2.6 | 97 ± 1.1 | 53.69 ± 0.36 | 98.45 ± 0.81 | 100 ± 2.2 | 98.08 ± 0.38 | 97.2 ± 2.3 | 83.3 ± 0.97 | 37.9 ± 0.47
15 | Cc1c(CN2CCN(C(=O)[C@H](C)O)CC2)sc2c(N3CCOCC3)nc(-c3cnc(N)nc3)nc12 [GDC-0980 (RC7422)] | 101 ± 1.1 | 114 ± 1.6 | 99.9 ± 1.4 | 89.64 ± 0.5 | 39.1 ± 1 | 23.3 ± 0.98 | 100.8 ± 0.26 | 98.64 ± 0.9 | 91.5 ± 5.1 | 75.5 ± 4.4 | 35.3 ± 2.2 | 30.2 ± 2
16 | O=C(O)Cc1cccc(OCCCN(Cc2cccc(C(F)(F)F)c2Cl)CC(c2ccccc2)c2ccccc2)c1 [GW3965] | 89.3 ± 0.92 | 88.7 ± 4 | 86.8 ± 4.3 | 86.31 ± 0.36 | 77.5 ± 4 | 86.9 ± 5.4 | 107 ± 1.3 | 108 ± 3.5 | 110.7 ± 1 | 106 ± 4.5 | 99.6 ± 5.4 | 101 ± 3.5
17 | CC[N+](CC)(CC)CCOc1cccc(OCC[N+](CC)(CC)CC)c1OCC[N+](CC)(CC)CC [Gallamine triethiodide (Flaxedil)] | 105 ± 2.9 | 109.1 ± 0.49 | 103 ± 3.5 | 102.6 ± 0.87 | 103.6 ± 0.17 | 89 ± 2 | 99.9 ± 4.2 | 87.2 ± 3 | 103 ± 1.7 | 92.4 ± 3.8 | 87.3 ± 1.9 | 99.6 ± 4.1
18 | COc1cc2ncnc(Nc3ccc(F)c(Cl)c3)c2cc1OCCCN1CCOCC1 [Gefitinib] | 111 ± 1.2 | 105.6 ± 0.46 | 106.5 ± 0.3 | 96.3 ± 4.1 | 100 ± 1.1 | 84.7 ± 1.8 | 101 ± 1.8 | 101 ± 1.2 | 102 ± 1.6 | 99.7 ± 1.1 | 99.2 ± 1.2 | 76.4 ± 3.7
